Experimental data reported in a compilation of properties of binary mixtures (doi:10.1016/j.molliq.2020.112816).

Assay: xn = mol fraction of the nth substance listed
Details: 101 kPa, x1 = 1

speed of sound (293.15 K): 1576.8 m/s | viscosity (293.15 K): 127.6 mPa·s | speed of sound (298.15 K): 1565.7 m/s | viscosity (298.15 K): 98.9 mPa·s | speed of sound (303.15 K): 1554.4 m/s | viscosity (303.15 K): 76.3 mPa·s | speed of sound (313.15 K): 1530.5 m/s | viscosity (313.15 K): 46.2 mPa·s
SMILES: CCCC[n+]1ccn(C)c1.F[B-](F)(F)F + NC=O
